Test results published in US9457084B2, “Use of EP4 receptor antagonists in the treatment of IL-23 mediated diseases” (RAQUALIA PHARMA INC., priority 2010, dated 2016).
Entries after “also recorded” stand apart in the source; their conditions may differ.

Legend:
mice [1] = conditions: animal models; NPL 19 / NPL 21; cited from earlier work
mice [2] = conditions: cited from earlier work
rat = conditions: cited from earlier work
mouse CD11c (+) cells = assay: IL-23 production in CD11c dendritic cells (ELISA); type: cell-based; conditions: 10, 100, or 1000 nM; antibody to CD40, 36 hours; supernatant ELISA
Procedure: CD11c dendritic cells (DCs) from the spleens of C57BL/6 mice were purified by auto-magnetic activated cell sorting. The DCs were cultured in a 96-well plate at a density of 6×10^5 cells per well in the presence of 10 microgram/mL antibody to CD40 for 36 hours. Compounds listed in FIG. 1, that is, Compound A (3-[2-(4-{2-ethyl-4,6-dimethyl-1H-imidazo[4,5-c]pyridin-1-yl}phenyl)ethyl]-1-[(4-methylbenzene)sulfonyl]urea) and Compound B (4-[(1S)-1-({[5-chloro-2-(3-fluorophenoxy)pyridin-3-yl]carbonyl}amino)ethyl]benzoic acid) were added at the beginning of incubation at a dose of 10, 100, or 1000 nM. The supernatant collected at the end of culture was measured by ELISA for IL-23.

Balb/c male mice = assay: DSS model (DSS-induced colitis); type: in vivo, mouse; conditions: 2.5% DSS for 7 days; 3 or 30 mg/kg orally for 7 days; evaluated day 11
Procedure: Eight weeks-old Balb/c male mice were used in the study. Mice were allocated to four groups; normal control group, disease control group receiving vehicle, and two disease groups receiving different dose of Compound B. Colitis was induced by drinking 2.5% DSS (average molecular weight of 5,000) dissolved in water for 7 days. Compound B in 0.5% methyl cellulose solution (at a dose of 3 or 30 mg/kg) was orally administered for 7 days. The mice were sacrificed on day 11 and the colon was harvested for the evaluation. Colon length, colon weight, and histology score were analyzed. Histology score was determined as follows; 0=no signs of damage; 1=moderate inflammation; 2=severe inflammation.

C57BL/6 male mice = assay: Allergic contact dermatitis and psoriasis model (picryl chloride, ear swelling); type: in vivo, mouse
Procedure: Eight weeks-old C57BL/6 male mice were used in the study. Mice were sensitized with 0.1 mL of 7% picryl chloride-ethanol on shaved abdominal skin on day O, Seven days later, the mice were treated with 0.02 mL of 1% picryl chloride-olive oil on both sides of the ear by painting. Ear thickness was measured using a thickness gage before the treatment, and 24 and 48 hours after the treatment, and the difference of ear thickness was used as a parameter of ear swelling. Compound B suspended in 0.5% methyl cellulose solution (at a dose of 3 or 30 mg/kg) was administered orally either during the entire experimental period (days 0 to 11) or elicitation (E) period (days 8 to 10).

[3] = NPL 26; cited from earlier work
[4] = NPL 27; cited from earlier work

Row | Structure (SMILES) | colitis score (Balb/c male mice) | colon weight/length (Balb/c male mice) | ear swelling (C57BL/6 male mice; treatment period not stated) | other results
1 | CC(C(=O)Nc1cc(C#N)ccc1CCCC(=O)O)c1ccc(F)c2ccccc12 (centres unmarked) [AE3-208] | – | – | – | effect on MS (mice [1]): treat MS; also recorded: ameliorate; effect on allergic contact dermatitis (mice [2]; animal models, NPL 19): ameliorate; efficacy on the development (sensitization) of allergic contact dermatitis (mice [2]; prophylactic (sensitization), NPL 25): potent inhibitory efficacy; efficacy by therapeutic treatment in allergic contact dermatitis (mice [2]; therapeutic treatment, NPL 25): failed to show the efficacy; effect on DSS-induced colitis (rat): aggravated
2 | CCc1nc2c(C)nc(C)cc2n1-c1ccc(CCNC(=O)NS(=O)(=O)c2ccc(C)cc2)cc1 [Compound A, 3-[2-(4-{2-ethyl-4,6-dimethyl-1H-imidazo[4,5-c]pyridin-1-yl}phenyl)ethyl]-1-[(4-methylbenzene)sulfonyl]urea] | Dose-dependent reduction | Dose-dependent reduction | dose-dependent reduction | inhibition of IL-23 production (mouse CD11c (+) cells): dose-dependent inhibition
3 | C[C@H](NC(=O)c1cc(Cl)cnc1Oc1cccc(F)c1)c1ccc(C(=O)O)cc1 [Compound B, 4-[(1S)-1-({[5-chloro-2-(3-fluorophenoxy)pyridin-3-yl]carbonyl}amino)ethyl]benzoic acid] | restored | restored | – | inhibition of IL-23 production (mouse CD11c (+) cells): dose-dependent inhibition; ear swelling (C57BL/6 male mice; 3 or 30 mg/kg orally during elicitation (E) period (days 8 to 10)): significantly reduced; ear swelling (C57BL/6 male mice; 3 or 30 mg/kg orally during entire experimental period (days 0 to 11)): significantly reduced; maximum efficacy on ear swelling compared with prednisolone (Pred) (C57BL/6 male mice; mouse, in vivo): equal to that of prednisolone
4 | C[C@H](NC(=O)c1cc(Cl)cnc1COc1cccc(Cl)c1)c1ccc(C(=O)O)cc1 [Compound C, 4-{(1S)-1-[({5-chloro-2-[(3-chlorophenoxy)methyl]pyridin-3-yl}carbonyl)amino]ethyl}benzoic acid] | Dose-dependent reduction | Dose-dependent reduction | dose-dependent reduction | –
5 | COc1ccc(-c2ccc(OCc3cc(C(=O)NS(=O)(=O)c4ccccc4C)oc3C)cc2)nc1 [Compound D, 4-((4-(5-methoxypyridin-2-yl)phenoxy)methyl)-5-methyl-N-(o-tolylsulfonyl)furan-2-carboxamide] | Dose-dependent reduction | Dose-dependent reduction | dose-dependent reduction | –
6 | Cc1sc(C)c(C(=O)NC2(c3ccc(C(=O)O)cc3)CC2)c1Cc1ccc(C(F)(F)F)cc1 [Compound E, 4-{1-[({2,5-dimethyl-4-[4-(trifluoromethyl)benzyl]-3-thienyl}carbonyl)amino]cyclopropyl}benzoic acid] | Dose-dependent reduction | Dose-dependent reduction | dose-dependent reduction | –
7 | COc1ccc2c(c1)c(CC(=O)O)c(C)n2C(=O)c1ccc(Cl)cc1 [indomethacin] | – | – | – | effect on DSS-induced colitis [3]: aggravated; effect on allergic contact dermatitis [4]: worse
